From patent publication US11332459B2 (TEIJIN PHARMA LIMITED, priority 2017, dated 2022)
Where a name gives a salt, the structure may show the parent alone.

Biological target: T1, human TRPC6 (Homo sapiens, UniProt Q9Y210)
T1 construct: expressed in transfected cells
T1 sequence (Q9Y210 1-931): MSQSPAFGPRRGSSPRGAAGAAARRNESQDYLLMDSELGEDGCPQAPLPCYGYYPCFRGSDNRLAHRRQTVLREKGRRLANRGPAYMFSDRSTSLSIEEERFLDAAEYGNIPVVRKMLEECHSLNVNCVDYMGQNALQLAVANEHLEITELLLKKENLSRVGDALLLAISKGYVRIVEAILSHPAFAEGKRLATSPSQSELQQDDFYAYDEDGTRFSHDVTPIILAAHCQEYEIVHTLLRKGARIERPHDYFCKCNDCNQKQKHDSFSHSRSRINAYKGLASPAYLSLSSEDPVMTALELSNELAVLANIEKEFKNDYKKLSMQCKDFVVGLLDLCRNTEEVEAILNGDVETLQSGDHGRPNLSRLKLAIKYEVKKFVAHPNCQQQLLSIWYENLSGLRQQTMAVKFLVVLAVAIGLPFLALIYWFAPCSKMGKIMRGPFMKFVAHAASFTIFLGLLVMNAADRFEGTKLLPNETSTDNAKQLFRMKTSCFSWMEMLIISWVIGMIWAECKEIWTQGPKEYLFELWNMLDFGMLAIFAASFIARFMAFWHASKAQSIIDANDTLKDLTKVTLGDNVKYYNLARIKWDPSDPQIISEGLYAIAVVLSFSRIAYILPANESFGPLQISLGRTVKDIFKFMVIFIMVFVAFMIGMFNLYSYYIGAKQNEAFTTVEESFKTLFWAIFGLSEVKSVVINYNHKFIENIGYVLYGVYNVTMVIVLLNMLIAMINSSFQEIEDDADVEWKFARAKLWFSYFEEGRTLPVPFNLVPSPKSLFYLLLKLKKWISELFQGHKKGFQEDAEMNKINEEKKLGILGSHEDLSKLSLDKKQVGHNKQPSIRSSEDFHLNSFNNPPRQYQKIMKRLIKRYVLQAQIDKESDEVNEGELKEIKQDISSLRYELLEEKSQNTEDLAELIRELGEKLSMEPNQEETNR
Experiment: TRPC6 calcium flux assay (FLIPR, OAG-stimulated calcium influx)
Assay type: cell-based
Conditions: HEK293 cells stably transfected with human TRPC6, read-out: hTRPC6 Potency
Summary of the method: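 IC50 derived by plotting background-corrected peak fluorescence (180 s window, normalized to OAG-triggered signal vs buffer) against dose. Stable human TRPC6 HEK293 line was dye-loaded, exposed to compound 25 min, then challenged with 50 uM final OAG in 2 mM Ca2+ HEPES buffer pH 7.2, 0.5% DMSO.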

| Compound | IC50 [nM] |
| --- | --- |
| N#Cc1ccc(Cn2c(N3CC[C@](O)(CN)C3)nc3ccccc32)cc1 [Example 177, (S)-4-((2-(3-(aminomethyl)-3-hydroxypyrrolidin-1-yl)-1H-benzo[d]imidazol-1-yl)methyl)benzonitrile 2,2,2-trifluoroacetate] | 1540 |
| C[C@H](c1ccc(C#N)cn1)n1c(N2CC[C@H]3OCCN[C@@H]3C2)nc2c(F)cc(F)cc21 [Example 267, 6-((1R)-1-(4,6-difluoro-2-((4aR,8aR)-hexahydro-2H-pyrido[4,3-b][1,4]oxazin-6(5H)-yl)-1H-benzimidazol-1-yl)ethyl)-3-pyridinecarbonitrile] | > 50000 |
| N[C@@H]1CN(c2nc3cc(F)c(F)cc3n2Cc2ccccc2OC(F)F)CC[C@H]1F [Example 348, (3R,4R)-1-(1-(2-(difluoromethoxy)benzyl)-5,6-difluoro-1H-benzimidazol-2-yl)-4-fluoro-3-piperidinamine] | 493 |
| C[C@H](c1ccc(C#N)cn1)n1c(N2CC[C@@H](F)[C@H](N)C2)nc2cc(C#N)ccc21 [Example 224, 2-((3R,4R)-3-amino-4-fluoropiperidin-1-yl)-1-((R)-1-(5-cyanopyridin-2-yl)ethyl)-1H-benzo[d]imidazole-5-carbonitrile hydrochloride] | 158 |
| N[C@@H]1CN(c2nc3ccc(F)cc3n2CC(=O)N(CC(F)(F)F)[C@@H]2CCOC2)CC[C@H]1F [Example 672] | 1660 |
| N#CCOc1ccc(Cn2c(N3CCC[C@@H](N)C3)nc3ccccc32)cc1 [Example 384, (R)-2-(4-((2-(3-aminopiperidin-1-yl)-1H-benzo[d]imidazol-1-yl)methyl)phenoxy) acetonitrile] | 16000 |
| N[C@@H]1CN(c2nc3cc(F)c(F)cc3n2[C@H]2CCN(c3ccc(Cl)cc3)C2=O)CC[C@H]1F [Example 247, (S)-3-(2-((3R,4R)-3-amino-4-fluoropiperidin-1-yl)-5,6-difluoro-1H-benzo[d]imidazol-1-yl)-1-(4-chlorophenyl)pyrrolidin-2-one] | 75.4 |
| N#Cc1ccc(Cn2c(N3CC[C@@H](F)[C@@H](N)C3)nc3ccccc32)cc1 [Example 171, 4-((2-((3S,4R)-3-amino-4-fluoropiperidin-1-yl)-1H-benzo[d]imidazol-1-yl)methyl)benzonitrile] | 544 |
| CN(C)C(=O)Cn1c(N2CC[C@@H](F)[C@H](N)C2)nc2cc(F)c(F)cc21 [Example 278, 2-(2-((3R,4R)-3-amino-4-fluoro-1-piperidinyl)-5,6-difluoro-1H-benzimidazol-1-yl)-N,N-dimethylacetamide] | 737 |
| Cc1nnc(Cn2c(N3CC[C@@H](F)[C@H](N)C3)nc3ncc(F)cc32)s1 [Example 574, (3R,4R)-4-fluoro-1-(6-fluoro-1-((5-methyl-1,3,4-thiadiazol-2-yl)methyl)-1H-imidazo[4,5-b]pyridin-2-yl)piperidin-3-amine] | 153 |
| Cc1nnc(Cn2c(N3CC[C@@H](F)[C@H](N)C3)nc3cc(F)cnc32)s1 [Example 590, (3R,4R)-4-fluoro-1-(6-fluoro-3-((5-methyl-1,3,4-thiadiazol-2-yl)methyl)-3H-imidazo[4,5-b]pyridin-2-yl)piperidin-3-amine] | 1440 |
| N[C@@H]1CN(c2nc3ccccc3n2CC(=O)N2CCC2)CC[C@H]1F [Example 520, 2-(2-((3R,4R)-3-amino-4-fluoropiperidin-1-yl)-1H-benzo[d]imidazol-1-yl)-1-(azetidin-1-yl)ethan-1-one] | 686 |
| N#Cc1ccc(Cn2c(N3CC[C@H](CN)C3)nc3ccccc32)nc1 [Example 80, (R)-6-((2-(3-(aminomethyl)pyrrolidin-1-yl)-1H-benzo[d]imidazol-1-yl)methyl)nicotinonitrile hydrochloride] | 79.3 |
| N#Cc1ccc(Cn2c(N3CC[C@H](F)[C@H](N)C3)nc3c(Cl)cc(Cl)cc32)nc1 [Example 59, 6-((2-((3R,4S)-3-amino-4-fluoropiperidin-1-yl)-4,6-dichloro-1H-benzo[d]imidazol-1-yl)methyl)nicotinonitrile] | 0.256 |
| C[C@H](c1ccc(Cl)cn1)n1c(N2CC[C@@H](F)[C@H](N)C2)nc2ccc(Cl)cc21 [Example 221, (3R,4R)-1-(6-chloro-1-((R)-1-(5-chloropyridin-2-yl)ethyl)-1H-benzo[d]imidazol-2-yl)-4-fluoropiperidin-3-amine hydrochloride] | 54.9 |
| N#Cc1ccc(Cn2c(N3CCC[C@H](N)C3)nc3ccccc32)c(F)c1 [Example 315, (S)-4-((2-(3-aminopiperidin-1-yl)-1H-benzo[d]imidazol-1-yl)methyl)-3-fluorobenzonitrile hydrochloride] | > 50000 |
| N[C@@H]1CN(c2nc3ccc(F)cc3n2CC(=O)NC2CCC2)CC[C@H]1F [Example 668, 2-(2-((3R,4R)-3-amino-4-fluoropiperidin-1-yl)-6-fluoro-1H-benzo[d]imidazol-1-yl)-N-cyclobutylacetamide] | 778 |
| C[C@@H](c1ccc(C#N)cn1)n1c(N2CC[C@@H]3OCCN[C@H]3C2)nc2c(F)cc(F)cc21 [Example 269, 6-((1S)-1-(4,6-difluoro-2-((4aS,8aS)-hexahydro-2H-pyrido[4,3-b][1,4]oxazin-6(5H)-yl)-1H-benzimidazol-1-yl)ethyl)-3-pyridinecarbonitrile] | 2.04 |
| C[C@@H](c1ccc(C#N)cc1)n1c(N2CC[C@H](F)[C@H](N)C2)nc2ccccc21 [Example 318, 4-((S)-1-(2-((3R,4S)-3-amino-4-fluoropiperidin-1-yl)-1H-benzo[d]imidazol-1-yl)ethyl)benzonitrile hydrochloride] | 37.7 |
| N#Cc1ccc(Cn2c(N3CC[C@H](F)[C@@H](N)C3)nc3ccccc32)nc1 [Example 16, 6-((2-((3S,4S)-3-amino-4-fluoropiperidin-1-yl)-1H-benzo[d]imidazol-1-yl)methyl)nicotinonitrile] | 224 |
| CS(=O)(=O)c1ccc(Cn2c(N3CC[C@@H](F)[C@H](N)C3)nc3cc(F)c(F)cc32)nc1 [Example 562, (3R,4R)-1-(5,6-difluoro-1-((5-(methylsulfonyl)pyridin-2-yl)methyl)-1H-benzo[d]imidazol-2-yl)-4-fluoropiperidin-3-amine] | 20.8 |
| N#Cc1ccc(Cn2c(N3CCC(F)(F)[C@H](N)C3)nc3ccc(Cl)cc32)nc1 [Example 12, (R)-6-((2-(3-amino-4,4-difluoropiperidin-1-yl)-6-chloro-1H-benzo[d]imidazol-1-yl)methyl)nicotinonitrile] | 0.285 |
| N#Cc1ccc(Cn2c(N3CC[C@H](O)[C@H](N)C3)nc3ccc(F)cc32)nc1 [Example 311, 6-((2-((3R,4S)-3-amino-4-hydroxypiperidin-1-yl)-6-fluoro-1H-benzo[d]imidazol-1-yl)methyl)nicotinonitrile] | 217 |
| N[C@@H]1CN(c2nc3cc(F)c(F)cc3n2CC(=O)N(c2ccccc2)C2C=CS(=O)(=O)C2)CC[C@H]1F (mixture of isomers) [Example 515, 2-(2-((3R,4R)-3-amino-4-fluoropiperidin-1-yl)-5,6-difluoro-1H-benzo[d]imidazol-1-yl)-N-(1,1-dioxido-2,3-dihydrothiophen-3-yl)-N-phenylacetamide] | 186 |
| N[C@@H]1CN(c2nc3cc(F)c(F)cc3n2Cc2ccc(Cl)cc2Cl)CC[C@H]1F [Example 341, (3R,4R)-1-(1-(2,4-dichlorobenzyl)-5,6-difluoro-1H-benzimidazol-2-yl)-4-fluoro-3-piperidinamine] | 25.8 |
| NC(=O)c1cnc(Cn2c(N3CC[C@@H](F)[C@H](N)C3)nc3ccc(C(F)(F)F)cc32)cn1 [Example 134, 5-((2-((3R,4R)-3-amino-4-fluoro-1-piperidinyl)-6-(trifluoromethyl)-1H-benzimidazol-1-yl)methyl)-2-pyrazinecarboxamide] | 4.71 |
| N[C@@H]1CN(c2nc3cc(F)c(F)cc3n2CC(=O)N2C[C@H]3C[C@H]3C2)CC[C@H]1F [Example 607, 2-(2-((3R,4R)-3-amino-4-fluoropiperidin-1-yl)-5,6-difluoro-1H-benzo[d]imidazol-1-yl)-1-((1R,5S)-3-azabicyclo[3.1.0]hexan-3-yl)ethanone] | 14.3 |
| CC(C)(C#N)C1CCN(C(=O)Cn2c(N3CC[C@@H](F)[C@H](N)C3)nc3cc(F)c(F)cc32)CC1 [Example 653, 2-(1-(2-(2-((3R,4R)-3-amino-4-fluoropiperidin-1-yl)-5,6-difluoro-1H-benzo[d]imidazol-1-yl)acetyl)piperidin-4-yl)-2-methylpropanenitrile] | > 3750 |
